Biological target: aryl hydrocarbon receptor (AhR) (Mus musculus (Mouse), UniProt P30561)
Test: AhR ligand screening: AhRE-luciferase reporter in transfected Hepa1 cells
Assay type: cell-based
Details: for Fold @ 1 nM: fold change of luciferase expression at 1 nM test compound relative to vehicle (0.1% DMSO); for Fold @ 100 nM: fold change of luciferase expression at 100 nM test compound relative to vehicle (0.1% DMSO); for Fold @ 10 uM: fold change of luciferase expression at 10 uM test compound relative to vehicle (0.1% DMSO); for Fold relative to benchmark @ 100 nM: luciferase expression at 100 nM test compound relative to 100 nM benchmark compound 11-cl-BBQ
From the text: The AhR is a ligand-activated transcription factor that dimerizes with ARNT to regulate gene expression, and genes that are regulated by AhR ligands have AhR response elements (AhRE) in their promotor regions.
Briefly, Hepa1 cells were transfected with a reporter construct consisting of AhRE linked to luciferase. The addition of AhR ligands to the transfected cells induces luciferase production that is directly proportional to the amount of AhR activation. We used this reporter system to identify novel compounds with AhR-activating properties. Transfected Hepa1 cells were plated at a density of 1×10^4 cells/well in 100 μL of cell culture media in 96 well plates and grown overnight. […] Following incubation with the compounds, the media was removed, and cells were harvested with lysis buffer. The lysates were transferred to opaque 96 well plates, where they were assayed well-by-well for luciferase activity by injection of luciferase assay substrate with a 2 sec mixing time and 15 sec integration period on a Tropix TR717 microplate luminometer. Data were expressed as fold induction of luciferase relative to vehicle (0.1% DMSO) treated cells.

Sequence of aryl hydrocarbon receptor (AhR) (P30561 10-805): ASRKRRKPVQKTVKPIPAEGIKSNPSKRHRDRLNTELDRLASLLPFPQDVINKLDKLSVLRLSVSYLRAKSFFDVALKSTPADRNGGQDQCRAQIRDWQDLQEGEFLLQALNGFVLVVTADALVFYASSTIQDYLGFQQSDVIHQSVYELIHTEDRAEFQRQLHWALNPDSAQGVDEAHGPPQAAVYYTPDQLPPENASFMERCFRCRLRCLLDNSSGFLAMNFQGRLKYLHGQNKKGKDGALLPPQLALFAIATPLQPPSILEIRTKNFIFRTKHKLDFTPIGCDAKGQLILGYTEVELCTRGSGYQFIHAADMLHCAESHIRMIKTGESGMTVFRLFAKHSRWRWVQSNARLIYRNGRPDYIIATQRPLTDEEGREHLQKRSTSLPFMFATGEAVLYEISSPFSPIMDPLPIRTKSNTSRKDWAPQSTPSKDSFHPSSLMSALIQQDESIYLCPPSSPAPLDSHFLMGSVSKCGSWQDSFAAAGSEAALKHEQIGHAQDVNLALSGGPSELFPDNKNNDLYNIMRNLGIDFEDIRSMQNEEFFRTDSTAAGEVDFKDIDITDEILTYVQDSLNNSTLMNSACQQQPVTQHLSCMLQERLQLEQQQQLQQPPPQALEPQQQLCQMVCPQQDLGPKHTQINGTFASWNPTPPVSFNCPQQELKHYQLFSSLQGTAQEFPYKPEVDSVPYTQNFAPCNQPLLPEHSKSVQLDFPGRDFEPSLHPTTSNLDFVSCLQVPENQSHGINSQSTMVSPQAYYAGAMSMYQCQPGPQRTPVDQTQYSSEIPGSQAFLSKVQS
Sequence of aryl hydrocarbon receptor (AhR) (P53762 whole entry partner): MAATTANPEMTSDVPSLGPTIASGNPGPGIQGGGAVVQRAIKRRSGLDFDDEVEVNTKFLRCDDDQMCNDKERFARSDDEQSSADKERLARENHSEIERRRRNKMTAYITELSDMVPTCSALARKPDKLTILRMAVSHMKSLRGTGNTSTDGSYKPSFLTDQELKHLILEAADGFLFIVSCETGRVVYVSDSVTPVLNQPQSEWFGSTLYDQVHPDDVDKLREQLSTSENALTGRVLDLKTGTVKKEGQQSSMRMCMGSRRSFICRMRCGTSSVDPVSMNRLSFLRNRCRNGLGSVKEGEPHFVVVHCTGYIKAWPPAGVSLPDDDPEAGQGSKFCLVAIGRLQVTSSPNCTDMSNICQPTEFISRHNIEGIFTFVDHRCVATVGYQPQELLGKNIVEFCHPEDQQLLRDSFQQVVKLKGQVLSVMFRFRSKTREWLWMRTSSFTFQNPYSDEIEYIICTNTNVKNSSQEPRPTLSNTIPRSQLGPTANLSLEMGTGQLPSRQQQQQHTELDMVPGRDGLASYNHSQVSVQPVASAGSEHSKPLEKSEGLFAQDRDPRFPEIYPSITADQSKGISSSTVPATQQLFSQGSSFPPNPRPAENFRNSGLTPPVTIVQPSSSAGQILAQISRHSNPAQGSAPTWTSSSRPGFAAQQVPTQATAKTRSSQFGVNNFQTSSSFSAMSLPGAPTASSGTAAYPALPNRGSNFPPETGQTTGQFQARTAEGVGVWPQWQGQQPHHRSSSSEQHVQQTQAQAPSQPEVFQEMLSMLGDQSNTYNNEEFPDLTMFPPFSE

SMILES	Fold @ 1 nM [fold]	Fold @ 100 nM [fold]	Fold @ 10 uM [fold]	Fold relative to benchmark @ 100 nM [fold]
Cc1ccc(S(=O)(=O)n2c(-c3cccc4ccccc34)nc3cc(Cl)ccc32)cc1 [Compound 527, 5-chloro-2-(naphthalen-1-yl)-1-tosyl-1H-benzo[d]imidazole]	1	15	36	0.38
O=C(c1ccc2nc(-c3cccc4ccccc34)n(Cc3ccc(SC(F)(F)F)cc3)c2c1)N1CCCCC1 [Compound 1412]	1	1	6	0.03
COC(=O)c1ccc2nc(-c3cccc4ccccc34)n(Cc3ccc(Cl)cc3)c2c1 [Compound 1407]	1	1	9	0.03
COc1ccc(C(=O)n2c(-c3cc4ccccc4s3)nc3cc(F)ccc32)cc1 [Compound 634]	1	2	22	0.22
CN1CCN(C(=O)c2ccc3c(c2)nc(-c2cccc4ccccc24)n3S(=O)(=O)c2cccc(F)c2)CC1 [Compound 1392]	1	1	4	0.03
O=C(c1ccc(F)c(F)c1)n1c(-c2ccc(Cl)c3ccccc23)nc2ccc(Cl)cc21 [Compound 870]	1	9	74	0.31
O=C(c1ccc(F)c(F)c1)n1c(-c2cccc(-c3ccccc3)c2)nc2cc(Cl)ccc21 [Compound 771]	1	1	2	0.04
c1ccc2c(c1)Cn1c3ccccc3c3ccnc-2c31 [Compound 526]	2.7	10	28	0.71
O=C(c1ccc(F)cc1F)n1c(-c2cccc3ccccc23)nc2cc(Cl)ccc21 [Compound 694]	2	32	35	1.23
O=C(c1ccc(F)c(F)c1)n1c(-c2cccc3c2CCCC3)nc2ccc(Cl)cc21 [Compound 780]	1	1	7	0.04
COC(=O)c1ccc2c(c1)nc(-c1cccc3ccccc13)n2S(=O)(=O)c1ccc(C(F)(F)F)cc1 [Compound 1401]	1	1	2	0.03
O=C(c1ccc(F)c(F)c1)n1c(-c2cccc3ccccc23)nc2cc(F)ccc21 [Compound 630]	1	5	9	0.56
O=C(c1ccc2c(c1)nc(-c1cccc3ccccc13)n2S(=O)(=O)c1cccc(F)c1)N1CCOCC1 [Compound 1356]	1	1	1	0.03
O=C(c1ccc(F)c(F)c1)n1c(-c2c3ccccc3cc3ccccc23)nc2cc(Cl)ccc21 [Compound 641]	1	1	21	0.11
O=C(c1ccccc1)n1c(-c2cc3ccccc3o2)nc2ccc(Cl)cc21 [Compound 588]	1	5	30	0.33
Fc1ccc(Cn2c(-c3cccc4ccccc34)nc3cc(Cl)ccc32)cc1F [Compound 887]	1	1	14	0.02
Cc1ccc(C(=O)n2c(-c3cccc4ccccc34)nc3cc(Cl)ccc32)cc1 [Compound 697]	1	23	22	0.88
O=C(c1ccc2c(c1)nc(-c1cccc3ccccc13)n2S(=O)(=O)c1ccc2ccccc2c1)N1CCOCC1 [Compound 1363]	1	1	4	0.03
COC(=O)c1ccc2nc(-c3cccc4ccccc34)n(C(=O)c3ccc(OC(F)(F)F)cc3)c2c1 [Compound 1405]	1	2	30	0.07
O=C(c1ccc(F)c(F)c1)n1c(-c2csc3ccccc23)nc2cc(Cl)ccc21 [Compound 861]	1	2	90	0.07
O=C(C1CCCCC1)n1c(-c2cccc3ccccc23)nc2cc(Cl)ccc21 [Compound 866]	1	34	50	1.17
N#Cc1ccc(S(=O)(=O)n2c(-c3cccc4ccccc34)nc3ccc(C(=O)N4CCCCC4)cc32)cc1 [Compound 1337]	1	1	8	0.03
COc1ccc(-c2nc3cc(Cl)ccc3n2C(=O)c2ccccc2)cc1 [Compound 496]	1	1	3.5	0.03
COc1ccc(Cn2c(-c3cccc4ccccc34)nc3cc(Cl)ccc32)cc1 [Compound 852]	1	1	29	0.03
COC(=O)c1ccc2c(c1)nc(-c1cccc3ccccc13)n2Cc1ccc(Cl)cc1 [Compound 1406]	1	1	4	0.03

Other lines, results leading:

Fold @ 1 nM [fold]	Fold @ 100 nM [fold]	Fold @ 10 uM [fold]	Fold relative to benchmark @ 100 nM [fold]	SMILES
1	1	3	0.03	COc1ccccc1S(=O)(=O)n1c(-c2cccc3ccccc23)nc2cc(C(=O)N3CCCCC3)ccc21 [Compound 1390]
1	1	4	0.04	CC(C)(C)c1cccc(-c2nc3cc(Cl)ccc3n2C(=O)c2ccc(F)c(F)c2)c1 [Compound 787]
1	1	4	0.03	Fc1ccc(-n2c(-c3cccc4ccccc34)nc3cc(Cl)ccc32)nc1 [Compound 854, 5-chloro-1-(5-fluoropyridin-2-yl)-2-(naphthalen-1-yl)-1H-benzo[d]imidazole]
1	19	35	0.48	Cc1ccc(S(=O)(=O)n2c(-c3cccc4ccccc34)nc3ccc(Cl)cc32)cc1 [Compound 528, 6-chloro-2-(naphthalen-1-yl)-1-tosyl-1H-benzo[d]imidazole]
1	1	4	0.03	COC(=O)c1ccc2nc(-c3cccc4ccccc34)n(Cc3ccc(F)c(F)c3)c2c1 [Compound 1339]
1	22	24	0.85	O=C(c1ccc(F)c(F)c1)n1c(-c2cccc3ccccc23)nc2cc(OC(F)(F)F)ccc21 [Compound 699]
1	3	32	0.06	Clc1ccc2c(c1)nc(-c1cccc3ccccc13)n2Cc1ccncc1 [Compound 876]
1	2	14	0.08	COc1ccc(C(=O)n2c(-c3cccc(C(F)(F)F)c3)nc3ccc(Cl)cc32)cc1 [Compound 765]
1	18	32	0.69	COc1ccc(C(=O)n2c(-c3cccc4ccccc34)nc3cc(Cl)ccc32)cc1OC [Compound 682]
1	3	14	0.2	O=C(c1ccc(F)c(F)c1)n1c(-c2ccc(F)c(Cl)c2)nc2cc(Cl)ccc21 [Compound 580]
1	2	31	0.08	O=C(c1ccc(F)c(F)c1)n1c(-c2ccccc2-c2ccccc2)nc2cc(Cl)ccc21 [Compound 766]

Source: patent publication US12473262B2, “Aryl hydrocarbon receptor activators” (Oregon State University, priority 2019, dated 2025)
